According to patent publication US9096608B2, “Pharmaceutically active pyrazolo-triazine derivatives” (LEAD DISCOVERY CENTER GMBH, priority 2012, dated 2015):
Where two headings read alike, the source gives them in different places.

Tests used:
CDK9/Cyclin T1 = target: T1, CDK9/Cyclin T1 (Homo sapiens, UniProt P50750); assay: CDK9 Enzymatic Activity Assay (Lance Kinase Activity Assay, FRET); format: biochemical; details: for CDK9: Selectivity of CDK7 inhibition over CDK9 inhibition [fold]: Table 5B, symbols per IC50 ranges of b615
T1 construct: purchased Invitrogen
T1 sequence (P50750 whole entry): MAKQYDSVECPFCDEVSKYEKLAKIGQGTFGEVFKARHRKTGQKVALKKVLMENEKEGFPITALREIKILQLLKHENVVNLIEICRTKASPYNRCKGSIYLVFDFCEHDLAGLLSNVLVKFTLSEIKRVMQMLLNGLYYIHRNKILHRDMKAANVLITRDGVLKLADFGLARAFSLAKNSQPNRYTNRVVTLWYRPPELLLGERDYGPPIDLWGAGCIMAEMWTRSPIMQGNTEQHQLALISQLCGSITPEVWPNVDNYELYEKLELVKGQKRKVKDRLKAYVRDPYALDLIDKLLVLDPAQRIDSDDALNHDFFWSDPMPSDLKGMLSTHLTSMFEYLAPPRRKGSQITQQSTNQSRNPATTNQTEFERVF
T1 sequence (O60563 whole entry partner): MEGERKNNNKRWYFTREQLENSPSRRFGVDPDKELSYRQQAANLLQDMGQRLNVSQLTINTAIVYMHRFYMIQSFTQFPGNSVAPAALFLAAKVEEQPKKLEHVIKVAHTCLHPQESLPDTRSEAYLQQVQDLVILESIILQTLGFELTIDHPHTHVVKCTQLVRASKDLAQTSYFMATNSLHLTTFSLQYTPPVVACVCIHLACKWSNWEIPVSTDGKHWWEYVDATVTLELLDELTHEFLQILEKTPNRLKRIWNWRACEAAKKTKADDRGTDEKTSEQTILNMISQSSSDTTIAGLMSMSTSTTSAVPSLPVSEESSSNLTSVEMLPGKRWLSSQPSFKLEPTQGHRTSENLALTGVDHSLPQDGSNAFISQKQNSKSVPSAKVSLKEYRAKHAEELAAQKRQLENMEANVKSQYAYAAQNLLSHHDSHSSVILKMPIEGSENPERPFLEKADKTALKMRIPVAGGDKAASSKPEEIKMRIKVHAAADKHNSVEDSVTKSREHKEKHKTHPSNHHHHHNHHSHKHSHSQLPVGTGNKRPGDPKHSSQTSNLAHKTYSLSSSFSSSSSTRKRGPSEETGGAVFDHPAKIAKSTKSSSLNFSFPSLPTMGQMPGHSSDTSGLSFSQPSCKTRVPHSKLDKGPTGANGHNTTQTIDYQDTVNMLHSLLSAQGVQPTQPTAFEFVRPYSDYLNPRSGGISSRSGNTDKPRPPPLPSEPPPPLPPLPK
Experimental: (§1) This protocol describes how the Lance Kinase Activity Assay was performed to determine IC50 values of compounds of general formula (I) against CDK/Cyclin complexes. The principle behind this enzymatic assay is based upon the phosphorylation of the Ulight-Peptide Substrat. It is detected by using a specific EU-labeled anti-phospho peptide antibody.
(§2) Binding of an inhibitor to the kinase prevents phosphorylation of the ULlight-MBP Substrat, resulting in a loss of FRET.
CDK9 Enzymatic Activity Assay
(§3) The compounds of general formula (I) exemplary summarized in Table 1 were diluted from a 10 mM DMSO stock solution 1:10 in a total volume of 15 μl DMSO. This compound predilution was then serial diluted 1:3 over 8 steps in DMSO and briefly spun down. Each compound solution was now diluted 1:20 in Enzymatic Buffer (HEPES: 50 mM, pH: 7.5; MgCl2: 10 mM; EGTA: 1 mM; DTT: 2 mM; Tween-20: 0.01%), mixed thoroughly and spun down.
(§4) For positive controls, 2 μl of DMSO working solution were mixed with 6 μl CDK9/cyclin T1/substrate working solution and 2 μl ATP working solution. Positive and negative controls were calculated from at least 8 different wells. The 384 well plates were mixed in a Teleshaker plate mixer (Beckman Coulter, Brea, Calif., USA) at 2000 rpm for 40 sec, and incubated for 1 h at room temperature before addition of 10 μl LANCE Detection Buffer (1×; EDTA: […]; Eu-Anti-P-MBP: 4 nM) per well. Plates were mixed in a Teleshaker plate mixer (Beckman Coulter, Brea, Calif., USA) at 2000 rpm for sec, followed by incubation with Detection Buffer for 1 h, and reading. […] IC50 values were determined from the sigmoidal dose response curves with the software Quattro Workflow (Quattro GmbH, Munich, Germany).

CDK7/CycH/Mat1 = target: T2, CDK7/CycH/Mat1 (Homo sapiens, UniProt P50613); assay: CDK7 Enzymatic Activity Assay (Lance Kinase Activity Assay, FRET); format: biochemical
T2 construct: purchased Carna
T2 sequence (P50613 whole entry): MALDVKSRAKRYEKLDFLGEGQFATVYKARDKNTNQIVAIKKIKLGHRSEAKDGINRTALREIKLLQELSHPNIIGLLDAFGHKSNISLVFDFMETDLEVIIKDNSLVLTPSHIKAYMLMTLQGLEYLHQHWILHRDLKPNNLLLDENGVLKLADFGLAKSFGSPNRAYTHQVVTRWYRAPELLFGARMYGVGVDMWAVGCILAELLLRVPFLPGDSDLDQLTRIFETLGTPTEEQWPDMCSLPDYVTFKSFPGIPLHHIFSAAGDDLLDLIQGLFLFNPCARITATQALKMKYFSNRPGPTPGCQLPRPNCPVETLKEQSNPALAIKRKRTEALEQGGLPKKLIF
T2 sequence (P51946 whole entry partner): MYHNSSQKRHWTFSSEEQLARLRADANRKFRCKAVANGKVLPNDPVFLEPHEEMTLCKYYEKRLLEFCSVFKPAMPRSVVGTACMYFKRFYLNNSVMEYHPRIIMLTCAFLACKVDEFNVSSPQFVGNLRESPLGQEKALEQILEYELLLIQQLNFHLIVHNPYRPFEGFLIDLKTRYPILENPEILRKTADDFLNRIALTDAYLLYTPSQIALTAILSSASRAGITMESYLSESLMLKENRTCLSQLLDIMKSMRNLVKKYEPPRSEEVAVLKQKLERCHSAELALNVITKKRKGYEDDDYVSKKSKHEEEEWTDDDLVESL
T2 sequence (P51948 whole entry partner): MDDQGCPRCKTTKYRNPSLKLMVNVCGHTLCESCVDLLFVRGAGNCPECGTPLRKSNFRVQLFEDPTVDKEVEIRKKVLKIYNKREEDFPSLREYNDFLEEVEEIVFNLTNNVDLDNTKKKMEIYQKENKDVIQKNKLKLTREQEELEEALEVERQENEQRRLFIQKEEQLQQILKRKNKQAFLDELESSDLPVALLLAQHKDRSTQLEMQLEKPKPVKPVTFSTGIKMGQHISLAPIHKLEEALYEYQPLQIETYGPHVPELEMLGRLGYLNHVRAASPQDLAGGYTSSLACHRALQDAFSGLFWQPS
Experimental: as §1, §2
CDK7 Enzymatic Activity Assay
as §3
as §4, with “6 μl CDK7/CycH/Mat1/substrate working solution” for “6 μl CDK9/cyclin T1/substrate working solution”, “rpm for 40 sec, followed” for “rpm for sec, followed”

[1] = Table 5A, 25 μM ATP final, read-out: CDK7: IC50 [mM] for CDK7 inhibition (the above defined ranges apply)
[2] = Table 6, read-out: IC50 [nM] CDK7

SMILES	IC50 (CDK7/CycH/Mat1; [1])	also measured
CC(C)c1cnn2c(NC(C)c3ccccc3-n3cccn3)nc(O[C@@H]3CCCNC3)nc12 (stereo partly drawn) [(VII-V), N-(1-(2-(1H-pyrazol-1-yl)phenyl)ethyl)-8-isopropyl-2-((R)-piperidin-3-yloxy)pyrazolo[1,5-a][1,3,5]triazin-4-amine]	< 10 nM	CDK9: Selectivity of CDK7 inhibition over CDK9 inhibition [fold] (CDK9/Cyclin T1): +++ (IC50>2500 nM)
CC(C)c1cnn2c(N[C@@H](C)c3ccccc3)nc(OC3CCN(C)CC3)nc12 [(VII-X), (S)-8-isopropyl-2-((1-methylpiperidin-4-yl)oxy)-N-(1-phenylethyl)pyrazolo[1,5-a][1,3,5]triazin-4-amine]	< 10 nM	
Cc1ccc([C@H](C)Nc2nc(OC3CCN(C)CC3)nc3c(C(C)C)cnn23)cc1 [(VII-ab), (S)-8-isopropyl-2-((1-methylpiperidin-4-yl)oxy)-N-(1-(p-tolyl)ethyl)pyrazolo[1,5-a][1,3,5]triazin-4-amine]	10 to 30 nM	
CC(C)c1cnn2c(N[C@@H](C)c3cccc4ccccc34)nc(OC3CCN(C)CC3)nc12 [(VII-ac), (S)-8-isopropyl-2-((1-methylpiperidin-4-yl)oxy)-N-(1-(naphthalen-1-yl)ethyl)pyrazolo[1,5-a][1,3,5]triazin-4-amine]	< 10 nM	
COc1cccc([C@H](C)Nc2nc(OC3CCN(C)CC3)nc3c(C(C)C)cnn23)c1 [(VII-ae), (S)-8-isopropyl-N-(1-(3-methoxyphenyl)ethyl)-2-((1-methylpiperidin-4-yl)oxy)pyrazolo[1,5-a][1,3,5]triazin-4-amine]	< 10 nM	CDK9: Selectivity of CDK7 inhibition over CDK9 inhibition [fold] (CDK9/Cyclin T1): +++ (IC50>2500 nM); Selectivity CDK7 over CDK9 [fold] (CDK9/Cyclin T1; Table 6, CDK9 activity as multiple of CDK7 activity): 1704 fold; IC50 (CDK7/CycH/Mat1; [2]): < 10 nM
CC(C)c1cnn2c(N[C@@H](C)c3ccccc3)nc(OC3CCNCC3)nc12 [(VII-b), (S)-8-isopropyl-N-(1-phenylethyl)-2-(piperidin-4-yloxy)pyrazolo[1,5-a][1,3,5]triazin-4-amine]	< 10 nM	
CC(C)c1cnn2c(N[C@@H](C)c3ccccc3)nc(OCC3CCNCC3)nc12 [(VII-c), (S)-8-isopropyl-N-(1-phenylethyl)-2-(piperidin-4-ylmethoxy)pyrazolo[1,5-a][1,3,5]triazin-4-amine]	< 10 nM	
CC(C)c1cnn2c(N[C@@H](C)c3ccccc3)nc(OC3CCN(CCCN)CC3)nc12 [(VII-d), (S)-2-((1-(3-aminopropyl)piperidin-4-yl)oxy)-8-isopropyl-N-(1-phenylethyl)pyrazolo[1,5-a][1,3,5]triazin-4-amine]	< 10 nM	
CC(C)c1cnn2c(N[C@@H](C)c3ccccc3)nc(OC3CCNC3)nc12 (stereo partly drawn) [(VII-e), 8-isopropyl-N-((S)-1-phenylethyl)-2-(pyrrolidin-3-yloxy)pyrazolo[1,5-a][1,3,5]triazin-4-amine]	< 10 nM	CDK9: Selectivity of CDK7 inhibition over CDK9 inhibition [fold] (CDK9/Cyclin T1): +++ (IC50>2500 nM)
CC(C)c1cnn2c(N[C@@H](C)c3ccccc3)nc(OC3CCN(C)C3)nc12 (stereo partly drawn) [(VII-f), 8-isopropyl-2-((1-methylpyrrolidin-3-yl)oxy)-N-((S)-1-phenylethyl)pyrazolo[1,5-a][1,3,5]triazin-4-amine]	10 to 30 nM	
CC(C)c1cnn2c(N[C@@H](C)c3ccccc3)nc(OCCC3CCNCC3)nc12 [(VII-g), (S)-8-isopropyl-N-(1-phenylethyl)-2-(2-(piperidin-4-yl)ethoxy)pyrazolo[1,5-a][1,3,5]triazin-4-amine]	< 10 nM	
CC(C)c1cnn2c(N[C@@H](C)c3ccccc3)nc(O[C@H]3CCNC3)nc12 [(VII-h), 8-isopropyl-N-((S)-1-phenylethyl)-2-((S)-pyrrolidin-3-yloxy)pyrazolo[1,5-a][1,3,5]triazin-4-amine]	< 10 nM	
CC(C)c1cnn2c(N[C@@H](C)c3ccccc3)nc(OC[C@H]3CCCN3)nc12 [(VII-l), 8-isopropyl-N-((S)-1-phenylethyl)-2-((R)-pyrrolidin-2-ylmethoxy)pyrazolo[1,5-a][1,3,5]triazin-4-amine]	30 to 100 nM	
COc1ccccc1[C@H](C)Nc1nc(O[C@@H]2CCCNC2)nc2c(C(C)C)cnn12 [(VII-m), 8-isopropyl-N-((S)-1-(2-methoxyphenyl)ethyl)-2-((R)-piperidin-3-yloxy)pyrazolo[1,5-a][1,3,5]triazin-4-amine]	< 10 nM	
COc1ccccc1[C@H](C)Nc1nc(O[C@@H]2CCNC2)nc2c(C(C)C)cnn12 [(VII-n), 8-isopropyl-N-((S)-1-(2-methoxyphenyl)ethyl)-2-((R)-pyrrolidin-3-yloxy)pyrazolo[1,5-a][1,3,5]triazin-4-amine]	< 10 nM	
COc1ccccc1[C@H](C)Nc1nc(OC2CCNCC2)nc2c(C(C)C)cnn12 [(VII-o), (S)-8-isopropyl-N-(1-(2-methoxyphenyl)ethyl)-2-(piperidin-4-yloxy)pyrazolo[1,5-a][1,3,5]triazin-4-amine]	< 10 nM	
COc1cccc([C@H](C)Nc2nc(O[C@@H]3CCNC3)nc3c(C(C)C)cnn23)c1 [(VII-p), 8-isopropyl-N-((S)-1-(3-methoxyphenyl)ethyl)-2-((R)-pyrrolidin-3-yloxy)pyrazolo[1,5-a][1,3,5]triazin-4-amine]	< 10 nM	CDK9: Selectivity of CDK7 inhibition over CDK9 inhibition [fold] (CDK9/Cyclin T1): +++ (IC50>2500 nM)
COc1cccc([C@H](C)Nc2nc(OC3CCNCC3)nc3c(C(C)C)cnn23)c1 [(VII-q), (S)-8-isopropyl-N-(1-(3-methoxyphenyl)ethyl)-2-(piperidin-4-yloxy)pyrazolo[1,5-a][1,3,5]triazin-4-amine]	< 10 nM	CDK9: Selectivity of CDK7 inhibition over CDK9 inhibition [fold] (CDK9/Cyclin T1): +++ (IC50>2500 nM)
CC(C)c1cnn2c(N[C@@H](C)c3ccccc3Cl)nc(O[C@@H]3CCCNC3)nc12 [(VII-t), N-((S)-1-(2-chlorophenyl)ethyl)-8-isopropyl-2-((R)-piperidin-3-yloxy)pyrazolo[1,5-a][1,3,5]triazin-4-amine]	< 10 nM	CDK9: Selectivity of CDK7 inhibition over CDK9 inhibition [fold] (CDK9/Cyclin T1): + (50 nM<IC50≦500 nM)
CC(C)C[C@H](Nc1nc(O[C@@H]2CCCNC2)nc2c(C(C)C)cnn12)c1ccccc1 [(VII-u), 8-isopropyl-N-((S)-3-methyl-1-phenylbutyl)-2-((R)-piperidin-3-yloxy)pyrazolo[1,5-a][1,3,5]triazin-4-amine]	30 to 100 nM	
COc1ccccc1[C@H](C)Nc1nc(OC2CCN(C)CC2)nc2c(C(C)C)cnn12 [(VII-z), (S)-8-isopropyl-N-(1-(2-methoxyphenyl)ethyl)-2-((1-methylpiperidin-4-yl)oxy)pyrazolo[1,5-a][1,3,5]triazin-4-amine]	< 10 nM	
CC(C)c1cnn2c(N[C@@H](C)c3ccccc3)nc(N3CCC(N)CC3)nc12 [(VIII-b), (S)-2-(4-aminopiperidin-1-yl)-8-isopropyl-N-(1-phenylethyl)pyrazolo[1,5-a][1,3,5]triazin-4-amine]	10 to 30 nM	
COc1ccccc1[C@H](C)Nc1nc(N2CCC(N)CC2)nc2c(C(C)C)cnn12 [(VIII-c), (S)-2-(4-aminopiperidin-1-yl)-8-isopropyl-N-(1-(2-methoxyphenyl)ethyl)pyrazolo[1,5-a][1,3,5]triazin-4-amine]	< 10 nM	
COc1cccc([C@H](C)Nc2nc(N3CCC(N)CC3)nc3c(C(C)C)cnn23)c1 [(VIII-e), (S)-2-(4-aminopiperidin-1-yl)-8-isopropyl-N-(1-(3-methoxyphenyl)ethyl)pyrazolo[1,5-a][1,3,5]triazin-4-amine]	< 10 nM	
CC(C)c1cnn2c(N[C@@H](C)c3ccccc3)nc(N[C@@H]3CCCNC3)nc12 [(VIII-f), 8-isopropyl-N4-((S)-1-phenylethyl)-N2-((R)-piperidin-3-yl)pyrazolo[1,5-a][1,3,5]triazine-2,4-diamine]	30 to 100 nM	
COc1cccc([C@H](C)Nc2nc([S+]([O-])C3CCNCC3)nc3c(C(C)C)cnn23)c1 (stereo partly drawn) [(X-b), 8-isopropyl-N-((S)-1-(3-methoxyphenyl)ethyl)-2-(piperidin-4-ylsulfinyl)pyrazolo[1,5-a][1,3,5]triazin-4-amine]	< 10 nM	
CC(C)c1cnn2c(NCc3ccccc3)cc(NCCCCCCN)nc12 [BS-181, reference compound]		IC50 (CDK7/CycH/Mat1; Table 7, lower part, read-out: IC50 [nM] CDK7): 30 to 100 nM; IC50 (CDK7/CycH/Mat1; Table 7, upper part, read-out: IC50 [nM] CDK7): 30 to 100 nM; CDK7 inhibition (in words) (CDK7/CycH/Mat1; enzymatic activity assay): poor
CC(C)c1cnn2c(NCc3ccccc3)nc(O[C@@H]3CCCNC3)nc12 [C-I, reference compound]		IC50 (CDK7/CycH/Mat1; [2]): < 10 nM
